Assays:
[1] = Pharmacokinetic study, oral dosing, plasma concentration by LC-MS/MS (Example II.5); assay type: in vivo; settings: mouse, male Balb/c mice, oral 20 mg/kg as dihydrochloride in saline, free base quantified, below LLOQ designated zero; for concentration at 15 min: read-out: conc. at 15 min; for concentration at 30 min: read-out: conc. at 30 min; for concentration at 60 min: read-out: conc. at 60 min; for concentration at 120 min: read-out: conc. at 120 min; for concentration at 240 min: read-out: conc. at 240 min; for concentration at 600 min: read-out: conc. at 600 min
Method: Male Balb/c mice (10-12 weeks old, body weight 24.1 to 30.8 g and average body weight across all groups 26.8 g, SD=1.7 g) were used in this study. The animals were randomly assigned to the treatment groups before the pharmacokinetic study; all animals were fasted for 4 h before dosing. The time points indicated in Table 4 were set for this pharmacokinetic study. Each of the time point treatment group included 4 animals. There was also control group of 2 animals. The compounds were dosed orally as the corresponding dihydrochlorides dissolved in physiological saline (c=3-4 mg/mL) at the dose of 20 mg/kg.
Mice were injected IP with 2,2,2-tribromoethanol at the dose of 150 mg/kg prior to drawing the blood. Blood collection was performed from the orbital sinus in microtainers containing K2EDTA. Animals were sacrificed by cervical dislocation after the blood samples collection. All samples were immediately processed, flash-frozen and stored at −70° C. until subsequent analysis.
Plasma samples (50 μL) were mixed with 200 μL of internal standard solution. After mixing by pipetting and centrifuging for 4 min at 6,000 rpm, 0.5 μL of each supernatant was injected into LC-MS/MS system.
The analyzed compound (as a dihydrochloride salt) was dissolved in DMSO, and the resulting solution with concentration of 2 mg/mL was used for calibration standards preparation (stock solution). A series of calibration standards was prepared by consecutively dilution of stock compound solution with blank mouse plasma to a final concentration of 40 000, 20 000, 10 000, 5 000, 2 500, 1000, 500, 250, 100, 50, and 20 ng/mL. Standard plasma samples (50 μL) were mixed with 200 μL of internal standard. After mixing by pipetting and centrifuging for 4 min at 6,000 rpm, 0.5 μL of each supernatant was injected into LC-MS/MS system. Signal corresponding to the free base was analyzed and quantified (Table 4).
The regression analysis of the analyzed compound was performed by plotting the peak area ratio (y-axis) against the compound concentration in calibration standards (x-axis, ng/mL).
The concentrations of the analyzed compound in plasma samples below the lower limit of quantitation (LLOQ—5 ng/mL to 20 ng/mL) were designated as zero.

[2] = tested on: Maver-1 cells (mantle cell lymphoma); test: Cytotoxicity, TMRE flow cytometry viability, Maver-1 cells (Example II.1); assay type: cell-based; settings: Homo sapiens, Maver1, 24 hours, TMRE positive cells normalized to control, ratio to PF670462, <1 = higher cytotoxicity than PF670462, read-out: Viability of cells, Compound of formula I (100 μM), relative to PF670462 (100 μM), Maver-1 cells (mantle cell lymphoma)
primary CLL cells = test: Cytotoxicity, TMRE flow cytometry viability, primary CLL cells (Example II.1); assay type: cell-based; settings: Homo sapiens, CLL cell, 6 hours, TMRE positive cells normalized to control, ratio to PF670462, <1 = higher cytotoxicity than PF670462, read-out: Viability of cells, Compound of formula I (100 μM), relative to PF670462 (100 μM), CLL primary cells

| SMILES | concentration at 15 min [1] [nM] | concentration at 30 min [1] [nM] | concentration at 60 min [1] [nM] | concentration at 120 min [1] [nM] | concentration at 240 min [1] [nM] | concentration at 600 min [1] [nM] | viability at 100 µM [2] [%] | viability at 100 µM (primary CLL cells) [%] |
| --- | --- | --- | --- | --- | --- | --- | --- | --- |
| Cn1ccc(Cn2cnc(-c3ccc(F)cc3)c2-c2ccnc3[nH]ccc23)n1 [Preparative Example 94] | 440 | 210 | 180 | 70 | 0 | 0 | 81 |  |
| Cn1cc(Cn2cnc(-c3ccc(F)cc3)c2-c2ccnc3[nH]ccc23)nn1 [Preparative Example 113, 4-(4-(4-fluorophenyl)-1-((1-methyl-1H-1,2,3-triazol-4-yl)methyl)-1H-imidazol-5-yl)-1H-pyrrolo[2,3-b]pyridine] | 8010 | 3530 | 1030 | 1120 | 250 | 0 |  |  |
| Fc1ccc(-c2ncn(Cc3cocn3)c2-c2ccnc3[nH]ccc23)cc1 [Preparative Example 103, 4-((4-(4-fluorophenyl)-5-(1H-pyrrolo[2,3-b]pyridin-4-yl)-1H-imidazol-1-yl)methyl)oxazole] | 2170 | 580 | 130 | 80 | 40 | 0 |  |  |
| Fc1ccc(-c2ncn(Cc3nc[nH]n3)c2-c2ccnc3[nH]ccc23)cc1 [Preparative Example 154, 4-(1-((1H-1,2,4-triazol-3-yl)methyl)-4-(4-fluorophenyl)-1H-imidazol-5-yl)-1H-pyrrolo[2,3-b]pyridine] | 13900 | 8760 | 7860 | 2450 | 520 | 0 |  |  |
| Cc1nnc(Cn2cnc(-c3ccc(F)cc3)c2-c2ccnc3[nH]ccc23)[nH]1 [Preparative Example 107, 4-(4-(4-fluorophenyl)-1-((5-methyl-4H-1,2,4-triazol-3-yl)methyl)-1H-imidazol-5-yl)-1H-pyrrolo[2,3-b]pyridine] | 4780 | 2420 | 2300 | 430 | 240 | 0 |  |  |
| CN1CCC(F)(Cn2cnc(-c3ccc(F)cc3)c2-c2ccnc3[nH]ccc23)CC1 [Preparative Example 126, 4-(1-((4-fluoro-1-methylpiperidin-4-yl)methyl)-4-(4-fluorophenyl)-1H-imidazol-5-yl)-1H-pyrrolo[2,3-b]pyridine] | 2380 | 1830 | 840 | 760 | 380 | 0 | 71 | 64 |
| CN(C)[C@H]1C[C@@H](n2cnc(-c3ccc(F)cc3)c2-c2ccnc3[nH]ccc23)C1 [Preparative Example 123, (1R,3s)-3-(4-(4-fluorophenyl)-5-(1H-pyrrolo[2,3-b]pyridin-4-yl)-1H-imidazol-1-yl)-N,N-dimethylcyclobutan-1-amine] | 1350 | 920 | 520 | 130 | 0 | 0 | 78 | 58 |
| Cn1nnc(Cn2cnc(-c3ccc(F)cc3)c2-c2ccnc3[nH]ccc23)n1 [Preparative Example 151] | 18900 | 7240 | 3980 | 770 | 410 | 0 |  |  |
| Fc1ccc(-c2ncn(Cc3cccnc3)c2-c2ccnc3[nH]ccc23)cc1 [Preparative Example 82, 4-(4-(4-fluorophenyl)-1-(pyridin-3-ylmethyl)-1H-imidazol-5-yl)-1H-pyrrolo[2,3-b]pyridine] | 1370 | 260 | 90 | 40 | 20 | 0 |  | 80 |
| CN1CCC(Cn2cnc(-c3ccc(F)cc3)c2-c2ccnc3[nH]ccc23)CC1 [Preparative Example 102, 4-(4-(4-fluorophenyl)-1-((1-methylpiperidin-4-yl)methyl)-1H-imidazol-5-yl)-1H-pyrrolo[2,3-b]pyridine] | 620 | 720 | 400 | 530 | 480 | 0 | 69 | 68 |
| Cn1cnc(Cn2cnc(-c3ccc(F)cc3)c2-c2ccnc3[nH]ccc23)c1 [Preparative Example 92, 4-(4-(4-fluorophenyl)-1-((1-methyl-1H-imidazol-4-yl)methyl)-1H-imidazol-5-yl)-1H-pyrrolo[2,3-b]pyridine] | 9520 | 6630 | 4520 | 790 | 50 | 0 | 81 |  |
| CCOC(=O)c1nc(-c2ccc(F)cc2)c(-c2ccnc3[nH]ccc23)n1C1CCCCC1 [Preparative Example 163, ethyl 1-cyclohexyl-4-(4-fluorophenyl)-5-(1H-pyrrolo[2,3-b]pyridin-4-yl)-1H-imidazole-2-carboxylate] |  |  |  |  |  |  | 10 | 57 |
| CN1CCC(n2cnc(-c3ccc(F)cc3)c2-c2ccnc3[nH]ccc23)CC1 [Preparative Example 14, 4-(4-(4-fluorophenyl)-1-(1-methylpiperidin-4-yl)-1H-imidazol-5-yl)-1H-pyrrolo[2,3-b]pyridine] |  |  |  |  |  |  | 70 | 77 |
| Cn1ccnc1Cn1cnc(-c2ccc(F)cc2)c1-c1ccnc2[nH]ccc12 [Preparative Example 122, 4-(4-(4-fluorophenyl)-1-((1-methyl-1H-imidazol-2-yl)methyl)-1H-imidazol-5-yl)-1H-pyrrolo[2,3-b]pyridine] | 2730 | 730 | 300 | 160 | 40 | 0 |  |  |
| Fc1ccc(-c2ncn(Cc3cccs3)c2-c2ccnc3[nH]ccc23)cc1 [Preparative Example 84, 4-(4-(4-fluorophenyl)-1-(thiophen-2-ylmethyl)-1H-imidazol-5-yl)-1H-pyrrolo[2,3-b]pyridine] |  |  |  |  |  |  | 8 | 48 |
| Fc1ccc(-c2ncn(C3CCCCCC3)c2-c2ccnc3[nH]ccc23)cc1 [Preparative Example 19, 4-(1-cycloheptyl-4-(4-fluorophenyl)-1H-imidazol-5-yl)-1H-pyrrolo[2,3-b]pyridine] |  |  |  |  |  |  | 33 | 22 |

Source: patent publication US11498920B2, “4-(1H-imidazol-5-yl)-1H-pyrrolo[2, 3-b] pyridines for use in the treatment of leukaemias, lymphomas and solid tumors” (MASARYKOVA UNIVERZITA, priority 2018, dated 2022)
